# “Also recorded” adds a separate entry of the source.
# Columns and labels:
# Format in all cases: cell-based, human
# HEY cells [1] = test: anchorage-independent growth in soft agar; conditions: 8 days in soft agar, vs negative control
# Protocol: Anchorage independent growth was examined using Cell Biolab's (San Diego, Calif.) soft agar kit according to the manufacturer's protocol. Briefly, 5,000 cells were grown in a 0.3% low melting temperature agar matrix. After 8 days of incubation, the agar matrix was solubilized, cells stained and absorbance recorded at 520 nm. The optical density (OD) was measured in a 96-well plate reader using a 485/520 nm filter set.
# Anchorage-independent growth is another characteristic of mesenchymal cells and is considered a hallmark of cellular transformation [Takeyama et al., Cancer Lett 2010; 96:216-24]. We tested anchorage-independent growth of HEY cells transfected with miR-429 relative to controls.
# HEY cells [2] = test: serum-induced migration, trans-well chamber assay; conditions: miR-429 transfected HEY cells vs negative control
# Protocol: For the migration and invasion assays, 2.5×10^3 overnight serum starved cells in serum-free media were added to the top chambers of trans-well plates (8 μm pore size; BD, Franklin Lakes, N.J.) and media containing 10% fetal calf serum (FCS) were added to the bottom chambers. After 8-12 h, the non-migrating (top) cells were removed and the invading (bottom) cells were counted. All assays were done in triplicate. For the wound-healing assay, 2.5×10^5 cells were seeded into six-well plates. After 24 h, a wound was incised, detached cells removed and fresh media added. Photos were taken after 8 hrs to monitor the invasion of cells into the wounded area.
# To further explore the effects of ectopic expression of miR-429 in HEY cells, we looked for changes in cellular functions frequently associated with EMT. For example, ovarian and other types of cancer cells undergoing EMT typically display increased motility/migration and invasiveness. […] Relative invasiveness was also measured by monitoring serum-induced invasion through a matrigel layer.
# HEY cells [3] = test: morphology of HEY cells after microRNA transfection; conditions: transfected with 30 nM miRNA, vs negative control
# Excerpt: The OVCAR3 cell line was originally established from the ascites of a patient with poorly differentiated papillary epithelial OC [Hamilton et al., Cancer Res 1985, 45:3668-76]. The OVCAR3 cell line was obtained from the American Type Culture Collection (Manassas, Va.). The HEY cell line was derived from a patient with moderately differentiated papillary cystadenocarcinoma of the ovary [Buick et al., Cancer Res 1985, 45:3668-76]. The HEY cell line was kindly provided by Gordon Mills, Department of Molecular Therapeutics, University of Texas, MD Anderson Cancer Center.
# 6×10^4 cells per well were seeded in 24-well plates. After 24 h, cells were transfected with 30 nM of miR-429 and miR-320 miRNA oligonucleotides (Ambion, Austin, Tex.) using Lipofectamine 2000 reagent (Invitrogen, Carlsbad, Calif.). The Ambion Pre-miRNA Precursor Negative Control was used as a control. Three days after transfection, cells were split and transfected again. This process was repeated every 3 days until 21 days when cells were assayed for response.
substance,measurement,setting,value
"miR-429: miR-200 family member; mature miRNA UAAUACUGUCUGGUAAAACCGU (SEQ ID NO: 6); miRNA oligonucleotide (Ambion) transfected at 30 nM (listed as RNA, chemistry not given here; listed as Homo sapiens) [miR-200 family member; miRNA oligonucleotide (Ambion) transfected at 30 nM]",anchorage-independent growth,HEY cells [1],significant suppression; also recorded: significantly reduced
same,"migration through pores, slower than negative controls",HEY cells [2],> 2 fold
same,morphological change of HEY cells,HEY cells [3],"morphological change from an elongated, spindle-shaped, mesenchymal phenotype to a more rounded, epithelial-like phenotype; also recorded: change from an elongated mesenchymal-like morphology to a rounded epithelial-like morphology"

# — patent publication US8895509B2, “MIR-200 family induces mesenchymal-to-epithelial transition (MET) in ovarian cancer cells” (Georgia Tech Research Corporation, priority 2010, dated 2014)
